Measurements as given in US8877452B2, “Nitrite-reductase (NIRB) as potential anti-tubercular target and a method to detect the severity of tuberculosis disease” (priority 2013, dated 2014).
Read-outs that look alike come from different tables or passages of the source.

Assays:
[1] = system: Mycobacterium tuberculosis in THP-1 macrophage; assay type: cell-based
THP-1 macrophages = assay: Cytotoxic effect on THP-1 macrophages, DAPI fluorescence microscopy; assay type: cell-based, Human; details: 100 μM; 10 days of treatment; compared with untreated control
Description: The THP1 macrophages were treated with 100 μM of p-HMB (Inhibitor) and incubated for 10 days and then stained with DAPI dye before taking pictures under a fluorescent microscope. The control cells were treated with the vehicle only under identical conditions.
THP-1 macrophage cells were grown on cover slip in 8 well microplates and washed twice with chilled methanol followed by staining with 4′,6-diamidino-2-phenylindole (DAPI) at final concentration of 300 nM. Macrophage cells were kept for 15 min at room temperature under dark condition. After incubation, cells were washed three times with distilled water and analyzed under the fluorescence microscope (Leitz Wetzlar model, Germany) at 350 nm excitation and 450 nm emission wavelengths (400×) using ‘A’ filter.
To investigate the host THP-1 macrophage cells condition due to its exposure to p-HMB inhibitor before considering its effective and specific inhibition of bacilli in macrophage infection models, fluorescence microscopic picture of THP-1 cells treated with p-HMB (100 μM) was compared with the untreated control after staining with DAPI (4′,6-diamidino-2-phenylindole). Fluorescence images were taken after 10th day of inhibitor treatment.

[2] = system: Mycobacterium tuberculosis

Structure (SMILES): CS(=N)(=O)CC[C@H](N)C(=O)O (stereo partly drawn) [L-MSO, L-methionine sulfoximine]
- decrease in intracellular viable bacilli count compared to control (without inhibitor) [1]: ~2.5 log difference

Structure (SMILES): O=C(O)c1cc[c]([Hg][OH])cc1 [p-HMB, para-hydroxy mercuric benzoate]
- decrease in intracellular viable bacilli count compared to control (without inhibitor) ([1]; […], cell count on 10th day PI, THP-1 macrophages): ~2 log difference
- reduction of bacilli count ([1]; in-vitro and ex-vivo conditions (summary statement)): ~2 log cfu
- cytotoxic effect on macrophage (nuclear integrity, DAPI staining) (THP-1 macrophages): without exhibiting any cytotoxic effects
- cell count reduction compared to bacilli grown under ammonia [2]: ~2.5 log difference

Structure (SMILES): [N-]=[N+]=[N-] [Azide]
- decrease in intracellular viable bacilli count compared to control (without inhibitor) [1]: ~1.5 log difference
